Data from patent publication US6737383B1, “Herbicidal oxadiazolidines” (priority 1999, dated 2004).

Tests used:
[1] = test system: cocklebur; test: Test B pre/postemergence cocklebur; type: in vivo, Xanthium strumarium
Outline: (§1)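 Response is a visual 0-to-10 score relative to untreated plants, where 0 means no effect and 10 means complete control, taken twelve to sixteen days after application. Treatments went onto soil at planting and onto foliage of 1- to 4-leaf plants, using a surfactant-containing non-phytotoxic solvent.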

[2] = test system: rape; test: Test B pre/postemergence rape; type: in vivo, Brassica napus
Outline: as §1

[3] = test system: sugar beet; test: Test B pre/postemergence sugar beet; type: in vivo, Beta vulgaris
Outline: as §1

[4] = test system: bamyardgrass; test: Test B flood test barnyardgrass; type: in vivo, Echinochloa crus-galli
Outline: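 Flood test on plants grown to the 2-leaf stage; treated plants kept in greenhouse twelve to sixteen days, then visually rated against controls on a 0 (no effect) to 10 (complete control) scale.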

[5] = test system: common pursiane; test: Test D common purslane; type: in vivo, Portulaca oleracea
Outline: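 Herbicide screen in the greenhouse. A non-phytotoxic solvent mixture with surfactant carried the test chemical; in pre-emergence tests it went onto the soil of pots seeded no more than a day earlier. Injury was scored by eye 14 to 21 days after application, 0 to 100.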

[6] = test system: winter wheat; test: Test E winter wheat; type: in vivo, Triticum aestivum; conditions: Postemergence; for Plant response rating, Wheat (winter): 0 to 100 scale
Outline: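 Visual evaluation versus untreated controls after about 21 to 28 days in the greenhouse. Compound was in a surfactant-containing non-phytotoxic solvent; postemergence plants were treated at the 1- to 4-leaf stage, grown in a 60:40 sandy loam and potting mix blend.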

[7] = test system: blackgrass; test: Test E blackgrass; type: in vivo, Alopecurus myosuroides; conditions: Preemergence
[8] = test system: green foxtail; test: Test E green foxtail; type: in vivo, Setaria viridis; conditions: Preemergence
[9] = test system: Italian ryegrass; test: Test E Italian ryegrass; type: in vivo, Lolium multiflorum; conditions: Preemergence
[10] = test system: winter wheat; test: Test E winter wheat; type: in vivo, Triticum aestivum; conditions: Preemergence
[11] = test system: wild oat; test: Test E wild oat; type: in vivo, Avena fatua; conditions: Preemergence
[12] = test system: winter barley; test: Test E winter barley; type: in vivo, Hordeum vulgare; conditions: Preemergence
[13] = Postemergence, Rate 125 g/ha, scale of 0 to 10 where 0 is no effect and 10 is complete control
[14] = Preemergence, Rate 62 g/ha, scale 0 to 10 (0 no effect, 10 complete control)
[15] = Preemergence, Rate 125 g/ha, 0 is no effect, 10 is complete control
[16] = Preemergence, Rate 250 g/ha, scale 0 to 10, 0 is no effect, 10 is complete control
[17] = Preemergence, Rate 500 g/ha, scale 0 to 10 (0 no effect, 10 complete control)
[18] = Rate 62 g/ha, Postemergence, scale of 0 to 10 where 0 is no effect and 10 is complete control
[19] = Rate 250 g/ha, Postemergence, scale 0 to 10, 0 is no effect, 10 is complete control
[20] = Rate 500 g/ha, Postemergence, scale 0 to 10
[21] = Rate 62 g/ha, 0 to 100 scale, 0 no effect, 100 complete control
[22] = Rate 125 g/ha, 0 to 100 scale (0 no effect, 100 complete control)
[23] = Rate 500 g/ha, 0 to 100 scale where 0 is no effect and 100 is complete control

CC(C)N(C(=O)n1oc(=O)n(C(C)C)c1=O)c1ccc(F)cc1 [Compound 131]
Cocklebur plant response rating [1, 13]: 3 | Cocklebur plant response rating [1, 14]: 0 | Cocklebur plant response rating (0 to 10 scale) [1, 15]: 0 | Cocklebur plant response rating [1, 16]: 2 | Cocklebur plant response rating [1, 17]: 2 | Cocklebur plant response rating [1, 18]: 2 | Plant response rating, Cocklebur [1, 19]: 5 | Cocklebur plant response rating [1, 20]: 5 | Rape plant response rating [2, 13]: 4 | Rape plant response rating [2, 14]: 8 | Rape plant response rating (0 to 10 scale) [2, 15]: 10 | Rape plant response rating [2, 16]: 10 | Rape plant response rating [2, 17]: 10 | Rape plant response rating [2, 18]: 1 | Plant response rating, Rape [2, 19]: 7 | Rape plant response rating [2, 20]: 9 | Sugarbeets plant response rating [3, 13]: 3 | Sugarbeets plant response rating [3, 14]: 7 | Sugarbeets plant response rating (0 to 10 scale) [3, 15]: 8 | Sugarbeets plant response rating [3, 16]: 10 | Sugarbeets plant response rating [3, 17]: 10 | Sugarbeets plant response rating [3, 18]: 2 | Plant response rating, Sugarbeets [3, 19]: 6 | Sugarbeets plant response rating [3, 20]: 8 | Barnyardgrass plant response rating ([4]; Rate 62 g/ha, headed Pre-emergence (flood test species), scale 0 to 10 (0 no effect, 10 complete control)): 0 | Barnyardgrass plant response rating ([4]; Rate 125 g/ha, Pre-emergence, flood test species, scale 0 to 10 where 0 is no effect and 10 is complete control): 0 | Barnyardgrass plant response rating ([4]; Rate 250 g/ha, headed Pre-emergence (flood test species), scale 0 to 10 (0 no effect, 10 complete control)): 9 | Plant response rating, Barnyardgrass ([4]; Rate 500 g/ha, headed Pre-emergence (flood test species), scale 0 to 10 (0 no effect, 10 complete control)): 9 | Plant response rating, C. purslane ([5]; Rate 16 g/ha; Preemergence; 0 to 100 scale, 0 no injury, 100 complete control): 0 | Plant response rating, C. purslane ([5]; Rate 32 g/ha; Preemergence; 0 to 100 scale, 0 no injury, 100 complete control): 0 | Plant response rating, C. purslane ([5]; Rate 64 g/ha, Preemergence; 0 to 100 scale, 0 no injury, 100 complete control): 0 | Plant response rating, C. purslane ([5]; Rate 125 g/ha, Preemergence; 0 to 100 scale, 0 no injury, 100 complete control): 0 | Plant response rating, C. purslane ([5]; Rate 250 g/ha; Preemergence; 0 to 100 scale): 10 | Plant response rating, C. purslane ([5]; Rate 500 g/ha, Preemergence; 0 to 100 scale): 100 | Plant response rating, C. purslane ([5]; Rate 500 g/ha; Preemergence; 0 to 100 scale): 10 | Plant response rating, Wheat (winter) ([6]; Rate 62 g/ha): 50 | Plant response rating, Wheat (winter) ([6]; Rate 125 g/ha): 60 | Plant response rating, Wheat (winter) ([6]; Rate 500 g/ha, 0 no effect, 100 complete control): 20 | Wheat (winter) plant response rating ([6]; Rate 250 g/ha, 0 to 100 scale where 0 is no effect and 100 is complete control): 0 | Plant response rating, Blackgrass [7, 21]: 60 | Plant response rating, Blackgrass [7, 22]: 50 | Blackgrass plant response rating (0 to 100 scale) ([7]; Rate 250 g/ha): 60 | Plant response rating, Blackgrass [7, 23]: 100 | Plant response rating, Green foxtail [8, 21]: 60 | Plant response rating, Green foxtail [8, 22]: 100 | Green foxtail plant response rating (0 to 100 scale) ([8]; Rate 250 g/ha): 100 | Plant response rating, I. Ryegrass [9, 21]: 70 | Plant response rating, I. Ryegrass [9, 22]: 100 | I. Ryegrass plant response rating (0 to 100 scale) ([9]; Rate 250 g/ha): 100 | Plant response rating, I. Ryegrass [9, 23]: 100 | Plant response rating, Wheat (winter) [10, 21]: 50 | Plant response rating, Wheat (winter) [10, 22]: 35 | Wheat (winter) plant response rating (0 to 100 scale) ([10]; Rate 250 g/ha): 60 | Plant response rating, Wheat (winter) [10, 23]: 95 | Plant response rating, Wild oat [11, 21]: 50 | Plant response rating, Wild oat [11, 22]: 50 | Wild oat plant response rating (0 to 100 scale) ([11]; Rate 250 g/ha): 60 | Plant response rating, Wild oat [11, 23]: 100 | Plant response rating, Barley (winter) [12, 21]: 40 | Plant response rating, Barley (winter) [12, 22]: 65 | Barley (winter) plant response rating (0 to 100 scale) ([12]; Rate 250 g/ha): 100 | Plant response rating, Barley (winter) [12, 23]: 100
